Where two headings read alike, the source gives them in different places.
How the values were obtained:
BaF3 (EGFR WT) = assay: Cell proliferation IC50 assay (Cell Titer GLO), BaF3 WT cells; type: cell-based; conditions: Mus musculus, Ba/F3 EGFR, 72 h
Summary of the method: (§1)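 Log-phase cells seeded 2000-4000/well, serial compound dilutions added one day later; DMSO negative, medium-only blank.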

BaF3 (EGFR Del19) = BaF3 (EGFR Del19) (Homo sapiens, UniProt P00533, cells depend on it, form not given); assay: Cell proliferation IC50 assay (Cell Titer GLO), BaF3 D cells; type: cell-based, mouse; conditions: Table 7, 72 h
Protocol: (§2) IC50 of compounds in the present invention was determined by Cell Titer GLO reagent from Promega. The procedures are as follows:
(§3) Tumor cells were cultured in specified medium in an incubator at 37° C. and 5% CO2. The cells were passaged periodically. Cells at the logarithmic growth phase were collected for plating at a density of 2000-4000 cells/well. The next day, the compounds of the present invention were serially diluted and added to the cells, with DMSO being the negative control and the culture media without cells being the blank control. The plate was incubated in the incubator for 72 h. The cell viability assay was performed by adding the detection reagents to the cell culture media according to Cell Titer GLO reagent instructions and detecting luminescent signals on an EnVision microplate reader (PerkinElmer).
(§4) Inhibition of cell growth by the compounds of the present invention was plotted by Prism Graphpad software for statistically calculating the IC50 of the compound of the present invention.

BaF3 (EGFR L858R/C797S) = BaF3 (EGFR L858R/C797S) (Homo sapiens, UniProt P00533, C797S/L858R, cells depend on it); assay: Cell proliferation IC50 assay (Cell Titer GLO), BaF3 LC cells; type: cell-based, mouse; conditions: Table 7, 72 h
Protocol: as §2, §3, §4

LT = assay: Cell proliferation IC50 assay (Cell Titer GLO), LT cells; type: cell-based; conditions: Mus musculus; Table 7; LT cells (BaF3 with EGFR mutant), 72 h
Protocol: as §2, §3, §4

A431 = assay: Cell proliferation IC50 assay (Cell Titer GLO), A431 cells; type: cell-based; conditions: Homo sapiens, A-431, A431, 72 h, read-out: A431 IC50
Summary of the method: as §1

[1] = system: BaF3 (EGFR L858R/T790M/C797S); assay: Cell proliferation IC50 assay (Cell Titer GLO), BaF3 LTC cells; type: cell-based; conditions: Mus musculus, Ba/F3 EGFR
Summary of the method: as §1

BaF3 (EGFR Del19/C797S) = target: T1, BaF3 (EGFR Del19/C797S) (Homo sapiens, UniProt P00533, C797S, cells depend on it, form not given); assay: Cell proliferation IC50 assay (Cell Titer GLO), BaF3 DC cells; type: cell-based, mouse; conditions: Table 7, 72 h
T1 construct: BaF3 (EGFR Del19/C797S)|DC|RPMI1640 + 10% FBS
Summary of the method: as §1

BaF3 patent = assay: Cell proliferation IC50 assay (Cell Titer GLO), BaF3 parental cells; type: cell-based; conditions: Mus musculus, Table 5, 10 ng/ml mIL3, 72 h
Protocol: as §2, §3, §4

DT = assay: Cell proliferation IC50 assay (Cell Titer GLO), DT cells; type: cell-based; conditions: Mus musculus; Table 7; DT cells (BaF3 with EGFR mutant), 72 h
Protocol: as §2, §3, §4

BaF3 (EGFR L858R) = BaF3 (EGFR L858R) (Homo sapiens, UniProt P00533, L858R, cells depend on it); assay: Cell proliferation IC50 assay (Cell Titer GLO), BaF3 L cells; type: cell-based, mouse; conditions: Table 7, 72 h
Protocol: as §2, §3, §4

[2] = system: BaF3 (EGFR Del19/T790M/C797S); assay: Cell proliferation IC50 assay (Cell Titer GLO), BaF3 DTC cells; type: cell-based; conditions: Mus musculus, Ba/F3 EGFR-Del19/T790M/C797S
Summary of the method: as §1

human EGFR-LTC = target: T2, human EGFR-LTC (Homo sapiens, UniProt P00533, C797S/L858R/T790M); assay: EGFR protein abundance assay (Western blotting), EGFR-LTC; type: cell-based; conditions: 24 h, Western blot; for DC50 / EGFR-LTC Dmax: Ba/F3 cells expressing human EGFR-LTC
T2 construct: expressed in transfected cells
Protocol: (§5) Mouse Ba/F3 cells stably expressing human EGFR-DTC, EGFR-LTC, or EGFR-DC were transferred to Petri dishes with RPMI-1640 medium (Gibco, Product No. 11875093) containing 10% fetal bovine serum (FBS, Biological Industries, Product No. 04-001-1A) and 0.1% penicillin/streptomycin (P/S) and incubated in an aseptic incubator at 37° C., 95% relative humidity, and 5% CO2. Cells at the logarithmic growth phase were taken and seeded at a density of 50000 cells/well in 12-well plates (Corning, Product No. 3513) containing 1 mL of medium per well. After 24 h, the compounds disclosed herein with different concentrations were added to the wells at a final DMSO concentration of 0.1%. After 24 h, cells were lysed in SDS lysis buffer (1.45 g of SDS, 0.2 g of Tris base, 6 mL of glycerol, 20 mg of bromophenol blue, 310 mg DTT; brought to 40 mL with d2H2O), and the EGFR levels were detected and analyzed by Western Blotting (immunoblotting) using standard molecular biological techniques. Cell lysates were boiled at 95° C. for 8 min, mixed and centrifuged. The total cell proteins in the lysates were subjected to SDS-PAGE (GenScript, Product No. M00654), transferred to NC membranes (GE, Product No. 1060002) by blotting, incubated in a blocking buffer (TAKARA, Product No. T7131A) at room temperature for 60 min, and co-incubated overnight at 4° C. with the following primary antibodies: anti-EGFR (#4267S, 1:1000), anti-phoso-EGFR (#3777S, 1:1000), anti-GAPDH (#5174S, 1:10000), anti-Actin (#5125 S, 1:10000) (all purchased from Cell Signaling Technology). The samples were washed three times with TBST at room temperature, each for 10 min, and then incubated for 60 minutes in a blocking buffer containing a secondary antibody (#7074S, 1:10000, purchased from Cell Signaling Technology) at room temperature. The samples were washed three times with TBST at room temperature, each for 10 min. Chemiluminescent substrates were added, and an Azure c300 system was used for imaging.

human EGFR-DTC = assay: EGFR protein abundance assay (Western blotting), EGFR-DTC; type: cell-based; conditions: Ba/F3 cells expressing human EGFR-DTC, 24 h, Western blot
Protocol: as §5

Chain of BaF3 (EGFR Del19) (P00533 with tags, fused parts or gaps DEL746-750): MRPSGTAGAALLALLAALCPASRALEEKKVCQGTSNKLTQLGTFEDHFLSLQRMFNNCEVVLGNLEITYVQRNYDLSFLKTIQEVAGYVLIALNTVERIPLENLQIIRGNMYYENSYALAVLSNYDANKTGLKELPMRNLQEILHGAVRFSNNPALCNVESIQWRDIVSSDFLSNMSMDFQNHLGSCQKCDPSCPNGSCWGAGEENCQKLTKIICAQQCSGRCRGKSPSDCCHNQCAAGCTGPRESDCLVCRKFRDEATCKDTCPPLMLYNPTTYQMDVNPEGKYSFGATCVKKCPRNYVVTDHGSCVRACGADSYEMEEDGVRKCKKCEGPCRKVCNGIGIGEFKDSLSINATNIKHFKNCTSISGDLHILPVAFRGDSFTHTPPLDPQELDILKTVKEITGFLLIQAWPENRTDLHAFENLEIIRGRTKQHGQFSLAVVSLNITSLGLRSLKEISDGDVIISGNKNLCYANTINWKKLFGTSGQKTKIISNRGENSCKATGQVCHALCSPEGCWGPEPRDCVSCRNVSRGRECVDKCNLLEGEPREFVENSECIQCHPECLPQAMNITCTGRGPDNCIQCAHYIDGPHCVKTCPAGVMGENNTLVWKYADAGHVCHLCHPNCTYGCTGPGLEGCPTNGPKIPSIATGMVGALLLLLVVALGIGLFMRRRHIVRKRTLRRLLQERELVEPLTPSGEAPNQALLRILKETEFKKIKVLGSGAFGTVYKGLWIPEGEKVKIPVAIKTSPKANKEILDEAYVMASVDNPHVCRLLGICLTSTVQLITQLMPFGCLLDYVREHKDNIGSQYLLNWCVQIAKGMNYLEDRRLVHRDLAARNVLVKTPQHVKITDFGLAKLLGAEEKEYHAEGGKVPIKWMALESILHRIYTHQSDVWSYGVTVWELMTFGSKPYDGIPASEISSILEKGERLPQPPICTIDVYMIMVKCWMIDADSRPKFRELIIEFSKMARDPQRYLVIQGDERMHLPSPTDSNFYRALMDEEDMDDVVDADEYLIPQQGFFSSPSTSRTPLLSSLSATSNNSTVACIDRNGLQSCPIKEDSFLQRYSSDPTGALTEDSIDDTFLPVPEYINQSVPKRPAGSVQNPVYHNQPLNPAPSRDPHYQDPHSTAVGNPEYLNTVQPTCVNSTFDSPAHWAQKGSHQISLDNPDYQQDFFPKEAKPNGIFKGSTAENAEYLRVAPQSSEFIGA
T1 sequence (P00533 with tags, fused parts or gaps DEL746-750/C797S, form open): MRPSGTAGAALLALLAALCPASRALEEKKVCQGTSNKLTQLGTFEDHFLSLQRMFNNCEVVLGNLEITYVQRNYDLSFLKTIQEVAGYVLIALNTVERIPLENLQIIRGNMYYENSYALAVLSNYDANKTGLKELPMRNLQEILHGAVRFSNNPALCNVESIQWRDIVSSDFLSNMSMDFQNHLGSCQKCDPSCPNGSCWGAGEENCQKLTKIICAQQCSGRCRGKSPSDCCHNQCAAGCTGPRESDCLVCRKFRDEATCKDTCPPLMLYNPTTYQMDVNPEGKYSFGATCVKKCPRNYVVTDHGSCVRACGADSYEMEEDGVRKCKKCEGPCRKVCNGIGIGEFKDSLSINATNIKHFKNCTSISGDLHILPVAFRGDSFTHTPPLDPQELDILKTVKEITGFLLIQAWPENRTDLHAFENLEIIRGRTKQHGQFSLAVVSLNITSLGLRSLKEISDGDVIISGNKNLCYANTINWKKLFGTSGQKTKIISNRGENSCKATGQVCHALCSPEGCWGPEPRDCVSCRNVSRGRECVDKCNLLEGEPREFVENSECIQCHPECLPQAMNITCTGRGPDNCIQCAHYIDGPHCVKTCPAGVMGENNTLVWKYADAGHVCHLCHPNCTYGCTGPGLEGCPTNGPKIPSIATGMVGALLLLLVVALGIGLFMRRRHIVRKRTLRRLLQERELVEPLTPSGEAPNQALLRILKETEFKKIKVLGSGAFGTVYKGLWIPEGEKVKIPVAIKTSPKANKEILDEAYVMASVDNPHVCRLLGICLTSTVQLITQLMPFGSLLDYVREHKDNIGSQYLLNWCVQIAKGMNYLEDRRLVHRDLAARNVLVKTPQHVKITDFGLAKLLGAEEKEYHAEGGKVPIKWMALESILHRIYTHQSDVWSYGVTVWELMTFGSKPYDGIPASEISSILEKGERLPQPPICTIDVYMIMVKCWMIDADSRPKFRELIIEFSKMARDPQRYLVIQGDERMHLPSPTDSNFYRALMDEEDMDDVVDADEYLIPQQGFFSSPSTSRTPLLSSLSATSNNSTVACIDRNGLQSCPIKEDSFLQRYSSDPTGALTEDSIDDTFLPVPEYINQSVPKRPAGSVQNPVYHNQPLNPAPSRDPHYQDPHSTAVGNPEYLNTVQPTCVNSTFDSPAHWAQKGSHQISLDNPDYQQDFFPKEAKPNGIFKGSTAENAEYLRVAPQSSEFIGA
T2 sequence (P00533 25-1210 T790M/C797S/L858R): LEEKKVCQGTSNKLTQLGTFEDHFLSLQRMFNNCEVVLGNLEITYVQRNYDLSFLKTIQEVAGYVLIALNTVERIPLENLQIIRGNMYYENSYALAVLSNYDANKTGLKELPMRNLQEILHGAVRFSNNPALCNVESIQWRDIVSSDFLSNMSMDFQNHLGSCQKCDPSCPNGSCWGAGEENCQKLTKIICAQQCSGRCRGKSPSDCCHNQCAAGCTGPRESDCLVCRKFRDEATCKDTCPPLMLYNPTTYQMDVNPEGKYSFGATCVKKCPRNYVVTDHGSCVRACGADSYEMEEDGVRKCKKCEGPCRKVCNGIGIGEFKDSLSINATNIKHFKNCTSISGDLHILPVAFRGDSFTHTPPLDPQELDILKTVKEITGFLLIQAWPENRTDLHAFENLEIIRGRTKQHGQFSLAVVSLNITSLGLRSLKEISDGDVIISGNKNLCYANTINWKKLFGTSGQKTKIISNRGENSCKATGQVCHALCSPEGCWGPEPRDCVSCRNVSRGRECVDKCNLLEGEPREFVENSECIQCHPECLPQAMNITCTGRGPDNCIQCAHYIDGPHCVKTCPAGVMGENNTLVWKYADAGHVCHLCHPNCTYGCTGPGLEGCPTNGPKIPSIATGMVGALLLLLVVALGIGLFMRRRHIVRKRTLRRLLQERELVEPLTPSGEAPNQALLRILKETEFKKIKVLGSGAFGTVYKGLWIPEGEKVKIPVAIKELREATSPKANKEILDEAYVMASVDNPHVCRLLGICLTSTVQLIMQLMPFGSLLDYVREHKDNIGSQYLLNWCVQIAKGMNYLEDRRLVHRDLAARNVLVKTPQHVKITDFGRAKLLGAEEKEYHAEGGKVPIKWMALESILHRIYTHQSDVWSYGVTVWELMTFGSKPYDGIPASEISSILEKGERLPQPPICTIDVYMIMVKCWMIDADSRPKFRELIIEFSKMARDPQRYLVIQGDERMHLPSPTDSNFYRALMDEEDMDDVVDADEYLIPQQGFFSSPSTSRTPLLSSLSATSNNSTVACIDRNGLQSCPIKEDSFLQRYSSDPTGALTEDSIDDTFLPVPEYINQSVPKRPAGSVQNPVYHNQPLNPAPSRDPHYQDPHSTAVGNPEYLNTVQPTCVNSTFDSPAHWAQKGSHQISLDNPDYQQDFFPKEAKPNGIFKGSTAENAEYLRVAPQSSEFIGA
Chain of BaF3 (EGFR L858R/C797S) (P00533 whole entry C797S/L858R): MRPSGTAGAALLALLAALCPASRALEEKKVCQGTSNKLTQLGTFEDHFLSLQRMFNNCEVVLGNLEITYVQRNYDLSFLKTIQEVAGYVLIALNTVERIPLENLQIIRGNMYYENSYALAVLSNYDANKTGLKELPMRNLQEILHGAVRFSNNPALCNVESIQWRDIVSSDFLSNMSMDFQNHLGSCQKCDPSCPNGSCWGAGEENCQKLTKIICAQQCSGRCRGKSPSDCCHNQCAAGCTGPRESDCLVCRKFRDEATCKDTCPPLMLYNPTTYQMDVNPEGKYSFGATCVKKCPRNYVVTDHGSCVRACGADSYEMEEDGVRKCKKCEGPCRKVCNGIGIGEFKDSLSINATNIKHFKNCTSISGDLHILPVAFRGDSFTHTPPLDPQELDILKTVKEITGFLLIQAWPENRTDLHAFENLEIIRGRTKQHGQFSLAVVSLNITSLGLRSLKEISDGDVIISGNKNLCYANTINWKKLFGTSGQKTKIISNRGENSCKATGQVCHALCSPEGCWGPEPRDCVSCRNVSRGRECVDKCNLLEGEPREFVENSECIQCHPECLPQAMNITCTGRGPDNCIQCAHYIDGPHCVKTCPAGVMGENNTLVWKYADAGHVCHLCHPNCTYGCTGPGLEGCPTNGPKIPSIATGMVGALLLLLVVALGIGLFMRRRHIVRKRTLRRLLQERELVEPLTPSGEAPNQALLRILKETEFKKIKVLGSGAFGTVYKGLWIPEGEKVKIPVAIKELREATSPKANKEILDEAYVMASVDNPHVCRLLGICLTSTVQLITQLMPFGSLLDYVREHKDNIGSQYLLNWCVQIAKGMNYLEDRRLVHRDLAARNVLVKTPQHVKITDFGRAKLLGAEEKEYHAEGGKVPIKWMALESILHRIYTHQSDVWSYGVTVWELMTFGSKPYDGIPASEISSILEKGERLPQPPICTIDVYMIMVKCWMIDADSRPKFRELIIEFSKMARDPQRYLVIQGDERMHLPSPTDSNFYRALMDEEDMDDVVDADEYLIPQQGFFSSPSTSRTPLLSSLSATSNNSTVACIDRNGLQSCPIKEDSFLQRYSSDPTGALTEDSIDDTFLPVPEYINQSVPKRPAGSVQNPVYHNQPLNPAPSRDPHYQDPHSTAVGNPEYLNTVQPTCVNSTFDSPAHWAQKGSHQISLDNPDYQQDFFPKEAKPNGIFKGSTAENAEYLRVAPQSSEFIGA

Molecule CCc1cc(Nc2ncc(Cl)c(Nc3ccccc3P(C)(C)=O)n2)c(OC)cc1N1CCC(N2CCN(CCCCCc3ccc4c(c3F)CN(C3CCC(=O)NC3=O)C4=O)CC2)CC1 (centres unmarked) [Example E20] has an IC50 (BaF3 (EGFR WT); Table 5, 10 ng/ml EGF) greater than 4000 nM, a GI50 (BaF3 (EGFR Del19)) of 1.7 nM and a GI50 (BaF3 (EGFR L858R/C797S)) of 19.4 nM. The IC50 (LT) was 10 nM, the IC50 (A431; Table 5) was 1270 nM and the IC50 ([1]; Table 5, 72 h) was 54.3 nM. For the same molecule, the IC50 (BaF3 (EGFR Del19/C797S)) was 2.7 nM, the IC50 (BaF3 patent) was greater than 4000 nM and the IC50 (DT) was 7 nM. The GI50 (BaF3 (EGFR L858R)) was 5.2 nM and the IC50 ([2]; Table 5, 72 h) was 5.6 nM.
CCc1cc(Nc2ncc(-c3cnn(C)c3)c(Nc3ccccc3P(C)(C)=O)n2)c(OC)cc1N1CCC(N2CCN(CCOc3cccc4c3CN(C3CCC(=O)NC3=O)C4=O)CC2)CC1 (centres unmarked) [Example E158] showed an IC50 (BaF3 (EGFR WT); Table 6, 10 ng/ml EGF) of 730 nM, a GI50 (BaF3 (EGFR Del19)) of 0.2 nM and a GI50 (BaF3 (EGFR L858R/C797S)) of 1.3 nM. The IC50 (LT) was 69.1 nM, the IC50 (A431; Table 6) was no less than 1200 nM and the IC50 ([1]; Table 6, 72 h) was 2760 nM. For the same molecule, the IC50 (BaF3 (EGFR Del19/C797S)) was 0.1 nM, the IC50 (DT) was 15.3 nM and the GI50 (BaF3 (EGFR L858R)) was 0.6 nM. The IC50 ([2]; Table 6, 72 h) was 33 nM.
Molecule CCc1cc(Nc2ncc(Cl)c(Nc3ccccc3P(C)(C)=O)n2)c(OC)cc1N1CCC(N2Cc3ccc(Oc4cccc5c4CN(C4CCC(=O)NC4=O)C5=O)cc3C2)CC1 (centres unmarked) [Example E120] has a DC50 (human EGFR-LTC) of 13.1 nM, a Dmax (human EGFR-LTC; BaF3, Ba/F3 cells expressing human EGFR-LTC) of 85% and a DC50 (human EGFR-DTC) of 7.17 nM. The “EGFR-DTC Dmax” value (human EGFR-DTC) was 86%, the IC50 (BaF3 (EGFR WT); Table 6, 10 ng/ml EGF) was no less than 2160 nM and the GI50 (BaF3 (EGFR Del19)) was 1.8 nM. For the same molecule, the GI50 (BaF3 (EGFR L858R/C797S)) was 33.9 nM, the IC50 (LT) was 9.3 nM and the IC50 (A431; Table 6) was no less than 1560 nM. It also gave an IC50 ([1]; Table 6, 72 h) of 115 nM, an IC50 (BaF3 (EGFR Del19/C797S)) of 3.2 nM and an IC50 (DT) of 7.8 nM. It also gave a GI50 (BaF3 (EGFR L858R)) of 16.6 nM and an IC50 ([2]; Table 6, 72 h) of 14.7 nM.
COc1cc(N2CCC(N3CCN(CCC#Cc4cccc5c4CN(C4CCC(=O)NC4=O)C5=O)CC3)CC2)c(C2CC2)cc1Nc1ncc(Cl)c(Nc2ccccc2P(C)(C)=O)n1 (centres unmarked) [Example E13] gave an IC50 (BaF3 (EGFR WT); Table 5, 10 ng/ml EGF) greater than 4000 nM, a GI50 (BaF3 (EGFR Del19)) of 6.1 nM and a GI50 (BaF3 (EGFR L858R/C797S)) of 128 nM. It also gave an IC50 (LT) of 16.5 nM, an IC50 (A431; Table 5) greater than 4000 nM and an IC50 ([1]; Table 5, 72 h) of 66.5 nM. It also gave an IC50 (BaF3 (EGFR Del19/C797S)) of 20.4 nM, an IC50 (BaF3 patent) greater than 4000 nM and an IC50 (DT) of 7.7 nM. For the same molecule, the GI50 (BaF3 (EGFR L858R)) was 23.5 nM and the IC50 ([2]; Table 5, 72 h) was 19.6 nM.
With CCc1cc(Nc2ncc(Cl)c(Nc3ccccc3P(C)(C)=O)n2)c(OC)cc1N1CCC(N2CCN(CCC#Cc3cccc4c3CN(C3CCC(=O)NC3=O)C4=O)CC2)CC1 (single isomer, unassigned) [Example E5] the DC50 (human EGFR-LTC) was less than 1 nM, the “EGFR-LTC Dmax” value (human EGFR-LTC) was 93% and the DC50 (human EGFR-DTC) was 9.31 nM. The “EGFR-DTC Dmax” value (human EGFR-DTC) was 86%.
CCc1cc(Nc2ncc(Cl)c(Nc3ccccc3P(C)(C)=O)n2)c(OC)cc1N1CCC2(CCN(CCCC#Cc3cccc4c3CN(C3CCC(=O)NC3=O)C4=O)CC2)CC1 (centres unmarked) [Example E15] was tested, and the IC50 (BaF3 (EGFR WT); Table 5, 10 ng/ml EGF) was greater than 4000 nM, the GI50 (BaF3 (EGFR Del19)) was 5.3 nM and the GI50 (BaF3 (EGFR L858R/C797S)) was 54.4 nM. It also gave an IC50 (LT) of 20.7 nM, an IC50 (A431; Table 5) greater than 4000 nM and an IC50 ([1]; Table 5, 72 h) of 120 nM. For the same molecule, the IC50 (BaF3 (EGFR Del19/C797S)) was 9.1 nM, the IC50 (BaF3 patent) was greater than 4000 nM and the IC50 (DT) was 13.7 nM. It also gave a GI50 (BaF3 (EGFR L858R)) of 20.1 nM and an IC50 ([2]; Table 5, 72 h) of 10.6 nM.
In the case of CCc1cc(Nc2ncc(Cl)c(Nc3ccccc3P(C)(C)=O)n2)c(OC)cc1N1CCC(N2CCN(CCC#Cc3cccc4c3CN(C3CCC(=O)NC3=O)C4=O)CC2)CC1 (single isomer, unassigned) [Example E6], the DC50 (human EGFR-LTC) is reported as 10.1 nM, the “EGFR-LTC Dmax” value (human EGFR-LTC) is reported as 89% and the DC50 (human EGFR-DTC) is reported as 3.37 nM. For the same molecule, the “EGFR-DTC Dmax” value (human EGFR-DTC) was 70%.

Source: patent US20240408216A1, “PROTEIN INHIBITOR OR DEGRADING AGENT, PHARMACEUTICAL COMPOSITION CONTAINING SAME AND PHARMACEUTICAL USE” (JING MEDICINE TECHNOLOGY (SHANGHAI) LTD., priority 2021, published 2024)
